In one experiment the target is ASK1 (Homo sapiens (Human), UniProt Q99683). As to the kind of experiment: ASK1 Kinase Assay (Promega ASK1 Kinase Enzyme System, ADP-Glo). Type of experiment: biochemical. As to conditions: enzyme 50 nM, ATP 10 μM. The method, then: The ASK1 enzymatic assay was run following Promega ASK1 Kinase Enzyme System (Cat #V3881). The kit provides the protocol, enzymes and all reagents necessary to run an assay. Firstly, the compounds, enzyme, substrate and ATP were diluted in provided assay buffer. The final concentration of the enzyme was 50 nM, substrate (Myelin basic protein) 1 μg/ml and ATP 10 μM. The compound and the enzyme were pre-incubated in a 384 well white solid bottom plate (Greiner, Cat#784075) for 10 minutes. After incubation, the substrate and ATP were added and incubated for further 60 minutes. After 60 minutes, ADP-Glo™ was added and plate was incubated for another 40 minutes. After 40 minutes, Kinase Detection Reagent was added and the plate was incubated for 45 minutes. After 45 minutes, plate was read on Perkin Elmer EnVision using luminescence read (0.5 seconds/well).
Chain of ASK1 (Q99683 649-946 limits assumed): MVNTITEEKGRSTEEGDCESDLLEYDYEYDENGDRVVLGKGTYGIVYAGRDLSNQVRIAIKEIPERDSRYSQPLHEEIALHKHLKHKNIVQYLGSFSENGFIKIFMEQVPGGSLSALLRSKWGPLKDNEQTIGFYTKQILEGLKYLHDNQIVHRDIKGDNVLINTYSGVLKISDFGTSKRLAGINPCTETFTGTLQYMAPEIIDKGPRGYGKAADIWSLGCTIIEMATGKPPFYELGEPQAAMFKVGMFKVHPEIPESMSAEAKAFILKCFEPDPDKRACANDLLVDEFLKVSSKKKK
(In general: ADP-Glo turns the ADP formed in a reaction into a luminescent signal.)

The test system of experiment [1] is LPS-induced TNFalpha in Human PBMCs. As to the kind of experiment: Inhibition of LPS-induced TNFalpha in Human PBMCs. Type of experiment: cell-based. As to conditions: PBMC, 100 ng/ml LPS, 6 hr, read-out: TNFa Inhibition IC50. How it is done:
Cryopreserved human PBMCs were obtained from AllCells (cat# PB003F). After thawing/dilution protocols using RPMI medium supplemented with 5% FBS (heat inactivated), 100 ul/well of 1×10^6 cells/ml were plated into 96 well tissue culture plates (Corning). Cells were then pre-incubated for 1 hr at 37° C. in humidified 5% CO2 and 95% air with test compounds diluted in DMSO (final DMSO concentration 0.3%). Each compound was tested at 10 concentrations in duplicate wells. After the pre-incubation, 100 ng/ml LPS (E. Coli; Sigma) in RPMI media with 5% FBS was added for a 6 hr incubation at 37° C. in humidified 5% CO2 and 95% air. Controls on each plate included cells and LPS only, cells and media only (no LPS), and media only. After the 6 hr incubation, plates were centrifuged and the supernatants transferred to a new plate and frozen for subsequent TNFalpha analysis. Human TNFalpha was analyzed by ELISA according to the manufacturer's instructions (BD Sciences, BD OptEIA™ Cat#550610) and analyzed on a SpectraMax M series (Molecular Devices) microplate reader at OD 450 nm. IC50s were calculated using XLFit4 curve fitting software (IDBS) and a 4-parameter one-site sigmoid dose response fit.

pIC50: −log10 of the molar value. Bounds are passed on as bounds.

Usually pIC50 stands for the negative decadic logarithm of the IC50, by convention in mol/L. Regarding `CN(C)C(=O)c1ccc2c(c1)CN(c1cccc(-c3nncn3C3CC3)n1)C2=O` [Compound 2, 2-(6-(4-Cyclopropyl-4H-1,2,4-triazol-3-yl)pyridin-2-yl)-N,N-dimethyl-1-oxoisoindoline-5-carboxamide], the figures for the pIC50 (on ASK1; in experiment [1]) were more than 6.70 and 5.00 to 5.70, respectively.

With `O=C(c1ccc2c(c1)CN(c1cccc(-c3nncn3C3CC3)n1)C2=O)N1CCOCC1` [Compound 7, 2-(6-(4-cyclopropyl-4H-1,2,4-triazol-3-yl)pyridin-2-yl)-5-(morpholine-4-carbonyl)isoindolin-1-one], the pIC50 against ASK1 was more than 6.70; in experiment [1] it was less than 8.00.

Take `CN1CCN(C(=O)c2ccc3c(c2)CN(c2cccc(-c4nncn4C4CC4)n2)C3=O)CC1` [Compound 10, 2-(6-(4-cyclopropyl-4H-1,2,4-triazol-3-yl)pyridin-2-yl)-5-(4-methylpiperazine-1-carbonyl)isoindolin-1-one]: the negative logarithm of the IC50 (pIC50) is more than 6.70 on ASK1 and 5.00 to 5.70 in experiment [1].

Turning to `O=C(c1ccc2c(c1)CN(c1cccc(-c3nncn3C3CC3)n1)C2=O)N1CCCCC1` [Compound 11, 2-(6-(4-cyclopropyl-4H-1,2,4-triazol-3-yl)pyridin-2-yl)-5-(piperidine-1-carbonyl)isoindolin-1-one], the pIC50 against ASK1 is more than 6.70; in experiment [1], 5.00 to 5.70.

As for `O=C(c1ccc2c(c1)CN(c1cccc(-c3nncn3C3CC3)n1)C2=O)N1CCC(O)CC1` [Compound 12, 2-(6-(4-cyclopropyl-4H-1,2,4-triazol-3-yl)pyridin-2-yl)-5-(4-hydroxypiperidine-1-carbonyl)isoindolin-1-one], the negative logarithm of the IC50 (pIC50) was more than 6.70 against ASK1 and less than 8.00 in experiment [1].

Consider `CC1(O)CCN(C(=O)c2ccc3c(c2)CN(c2cccc(-c4nncn4C4CC4)n2)C3=O)CC1` [Compound 13, 2-(6-(4-cyclopropyl-4H-1,2,4-triazol-3-yl)pyridin-2-yl)-5-(4-hydroxy-4-methylpiperidine-1-carbonyl)isoindolin-1-one], for which the pIC50 against ASK1 is more than 6.70; in experiment [1], less than 8.00.

`COC1CCN(C(=O)c2ccc3c(c2)CN(c2cccc(-c4nncn4C4CC4)n2)C3=O)CC1` [Compound 14, 2-(6-(4-cyclopropyl-4H-1,2,4-triazol-3-yl)pyridin-2-yl)-5-(4-methoxypiperidine-1-carbonyl)isoindolin-1-one]: the results for the pIC50 (against ASK1; in experiment [1]) were more than 6.70 and 5.00 to 5.70, respectively.

For `CN(C)C1CCN(C(=O)c2ccc3c(c2)CN(c2cccc(-c4nncn4C4CC4)n2)C3=O)CC1` [Compound 15, 2-(6-(4-cyclopropyl-4H-1,2,4-triazol-3-yl)pyridin-2-yl)-5-(4-(dimethylamino)piperidine-1-carbonyl)isoindolin-1-one], the pIC50 was more than 6.70 against ASK1 and 5.00 to 5.70 in experiment [1].

With `CC(=O)N1CCN(C(=O)c2ccc3c(c2)CN(c2cccc(-c4nncn4C4CC4)n2)C3=O)CC1` [Compound 16, 5-(4-acetylpiperazine-1-carbonyl)-2-(6-(4-cyclopropyl-4H-1,2,4-triazol-3-yl)pyridin-2-yl)isoindolin-1-one], the pIC50 at ASK1 was more than 6.70; in experiment [1], less than 8.00.

On to `CC(=O)NC1CCN(C(=O)c2ccc3c(c2)CN(c2cccc(-c4nncn4C4CC4)n2)C3=O)CC1` [Compound 17, N-(1-(2-(6-(4-cyclopropyl-4H-1,2,4-triazol-3-yl)pyridin-2-yl)-1-oxoisoindoline-5-carbonyl)piperidin-4-yl)acetamide], for which the pIC50 was more than 6.70 at ASK1 and less than 8.00 in experiment [1].

Take `O=C1c2cc(-c3cccnc3)ccc2CN1c1cccc(-c2nncn2C2CC2)n1` [Compound 40, 2-(6-(4-cyclopropyl-4H-1,2,4-triazol-3-yl)pyridin-2-yl)-6-(pyridin-3-yl)isoindolin-1-one]: the pIC50 in experiment [1] was more than 5.70.

As to `Cc1ccncc1-c1ccc2c(c1)C(=O)N(c1cccc(-c3nncn3C3CC3)n1)C2` [Compound 41, 2-(6-(4-cyclopropyl-4H-1,2,4-triazol-3-yl)pyridin-2-yl)-6-(4-methylpyridin-3-yl)isoindolin-1-one], the negative logarithm of the IC50 (pIC50) in experiment [1] is more than 5.70.

As for `O=C1c2cc(-c3cncnc3)ccc2CN1c1cccc(-c2nncn2C2CC2)n1` [Compound 43, 2-(6-(4-cyclopropyl-4H-1,2,4-triazol-3-yl)pyridin-2-yl)-6-(pyrimidin-5-yl)isooindolin-1-one], the negative-log IC50 (pIC50) is more than 6.70 against ASK1 and 5.00 to 5.70 in experiment [1].

For `Cc1ncc(-c2ccc3c(c2)C(=O)N(c2cccc(-c4nncn4C4CC4)n2)C3)cn1` [Compound 44, 2-(6-(4-cyclopropyl-4H-1,2,4-triazol-3-yl)pyridin-2-yl)-6-(2-methylpyrimidin-5-yl)isoindolin-1-one], the values for the pIC50 (against ASK1; in experiment [1]) were more than 6.70 and 5.00 to 5.70, respectively.

For the compound `O=C1c2cc(-c3ccc(C4CC4)nc3)ccc2CN1c1cccc(-c2nncn2C2CC2)n1` [Compound 46, 2-(6-(4-cyclopropyl-4H-1,2,4-triazol-3-yl)pyridin-2-yl)-6-(6-cyclopropylpyridin-3-yl)isoindolin-1-one], the pIC50 in experiment [1] is more than 5.70.

For `O=C1c2cc(-c3cnc(C4CC4)cn3)ccc2CN1c1cccc(-c2nncn2C2CC2)n1` [Compound 60, 2-(6-(4-cyclopropyl-4H-1,2,4-triazol-3-yl)pyridin-2-yl)-6-(5-cyclopropylpyrazin-2-yll)isoindolin-1-one], the pIC50 in experiment [1] is less than 8.00.

Consider `COc1cc2c(cc1-c1cccnc1)C(=O)N(c1cccc(-c3nncn3C3CC3)n1)C2` [Compound 66, 2-(6-(4-cyclopropyl-4H-1,2,4-triazol-3-yl)pyridin-2-yl)-5-methoxy-6-(pyridin-3-yl)isoindolin-1-one], for which, in experiment [1], the pIC50 was more than 5.70.

For `CC(C)Oc1cc2c(cc1-c1cccnc1)C(=O)N(c1cccc(-c3nncn3C3CC3)n1)C2` [Compound 68, 2-(6-(4-cyclopropyl-4H-1,2,4-triazol-3-yl)pyridin-2-yl)-5-isopropoxy-6-(pyridin-3-yl)isoindolin-1-one], the pIC50 against ASK1 is more than 6.70; in experiment [1], more than 5.70.

On to `O=C1c2cc(-c3cccnc3)c(OC3CCCC3)cc2CN1c1cccc(-c2nncn2C2CC2)n1` [Compound 69, 5-(Cyclopentyloxy)-2-(6-(4-cyclopropyl-4H-1,2,4-triazol-3-yl)pyridin-2-yl)-6-(pyridin-3-yl)isoindolin-1-one], for which the negative-log IC50 (pIC50) against ASK1 was more than 6.70; in experiment [1] it was more than 5.70.

Regarding `O=C(c1cc2c(cc1-c1cccnc1)C(=O)N(c1cccc(-c3nncn3C3CC3)n1)C2)N1CCCC1` [Compound 71, 2-(6-(4-cyclopropyl-4H-1,2,4-triazol-3-yl)pyridin-2-yl)-6-(pyridin-3-yl)-5-(pyrrolidine-1-carbonyl)isoindolin-1-one], the pIC50 against ASK1 is more than 6.70; in experiment [1], 5.00 to 5.70.

Source of the values: patent US10150755B2, “ASK1 inhibitor compounds and uses thereof” (Seal Rock Therapeutics, Inc., priority 2017, dated 2018).
